Literature values, collected in US20090306403A1, “Production Process for Bicyclic Tetrahydropyrrole Compounds” (priority 2006, published 2009).

Columns and labels:
[1] = biological target: sigma (σ-2) site (Homo sapiens, UniProt Q5BJF2); conditions: background statement in words
[2] = biological target: sigma 1 (σ-1) site (Homo sapiens, UniProt Q99720); conditions: background statement in words
sigma 1 (σ-1) site, sequence (Q99720 whole entry): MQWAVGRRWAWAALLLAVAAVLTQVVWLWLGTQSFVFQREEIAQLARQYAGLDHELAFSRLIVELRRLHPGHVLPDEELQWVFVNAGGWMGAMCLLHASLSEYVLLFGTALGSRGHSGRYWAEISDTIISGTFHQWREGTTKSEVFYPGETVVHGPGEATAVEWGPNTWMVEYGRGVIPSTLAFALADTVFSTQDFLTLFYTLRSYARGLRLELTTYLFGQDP

sigma (σ-2) site, sequence (Q5BJF2 whole entry): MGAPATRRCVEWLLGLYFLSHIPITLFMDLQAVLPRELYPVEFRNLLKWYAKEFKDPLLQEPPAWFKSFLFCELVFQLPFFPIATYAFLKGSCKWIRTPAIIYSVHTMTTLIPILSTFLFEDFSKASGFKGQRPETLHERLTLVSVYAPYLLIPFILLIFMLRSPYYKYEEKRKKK

Substance: SKF 10047
- affinity for the sigma (σ-2) site [1]: micromolar affinity
- affinity for the sigma 1 (σ-1) site [2]: nanomolar affinity
